Results taken from patent publication US6274715A, “Tricyclic erythromycin derivatives” (priority 1997, dated 2001).
Converted amounts (≈) assume the structure as drawn.

Columns and labels:
Format in all cases: cell-based
[1] = test system: STAPHYLOCOCCUS AUREUS A5177; test: In vitro antibacterial activity, MIC, BHI agar dilution; details: S. aureus A5177, unit assumed
[2] = test system: STAPHYLOCOCCUS AUREUS A-5278; test: as above; details: S. aureus A-5278, unit assumed
[3] = test system: STAPHYLOCOCCUS AUREUS CMX 642A; test: as above; details: S. aureus CMX 642A, unit assumed
[4] = test system: STAPHYLOCOCCUS AUREUS CMX 553; test: as above; details: S. aureus CMX 553, unit assumed
[5] = test system: STAPHYLOCOCCUS AUREUS 1775; test: as above; details: S. aureus 1775, unit assumed
[6] = test system: STAPHYLOCOCCUS EPIDERMIDIS 3519; details: S. epidermidis 3519; BHI agar; unit assumed
EN[…] ATCC 8043 = test: In vitro antibacterial activity, MIC, BHI agar dilution; details: E. faecium ATCC 8043, unit assumed
Method in brief: (§1)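 BHI agar dilution: twelve plates with successive compound dilutions, inoculated by replicator with 1:100 culture dilutions (1:10 for slow growers such as Micrococcus and Streptococcus), 20 to 24 hours at 35-37° C. MIC was the lowest concentration giving no growth, slight haze or sparse isolated colonies versus drug-free control; erythromycin A as class reference.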

M[…] ATCC 4698 = test: as above; details: M. luteus ATCC 4698, unit assumed
Method in brief: as §1

M[…] ATCC 9341 = test: as above; details: M. luteus ATCC 9341, unit assumed
Method in brief: as §1

STR[…] 508 = test: as above; details: S. agalactiae CMX 508, unit assumed
Method in brief: as §1

[7] = test system: STREPTOCOCCUS BOVIS A-5169; test: as above; details: S. bovis A-5169, unit assumed
[8] = test system: STREPTOCOCCUS PYOGENES EES61; test: as above; details: S. pyogenes EES61, unit assumed
[9] = test system: STREPTOCOCCUS PYOGENES 930; test: as above; details: S. pyogenes 930, unit assumed
[10] = test system: STREPTOCOCCUS PYOGENES PIU 2548; test: as above; details: S. pyogenes PIU 2548, unit assumed
ESCHERICHIA COLI JUHL = details: E. coli JUHL; BHI agar; unit assumed
ESCHERICHIA COLI SS = test: In vitro antibacterial activity, MIC, BHI agar dilution; details: E. coli SS, unit assumed
ESCHERICHIA COLI DC-2 = test: as above; details: E. coli DC-2, unit assumed
ESCHERICHIA COLI H560 = test: as above; details: E. coli H560, unit assumed
ESCHERICHIA COLI KNK 437 = details: E. coli KNK 437; BHI agar; unit assumed
[11] = test system: KLEBSIELLA PNEUMONIAE ATCC 8045; test: In vitro antibacterial activity, MIC, BHI agar dilution; details: K. pneumoniae ATCC 8045, unit assumed
[12] = test system: PROVIDENCIA STUARTII CMX 640; details: P. stuartii CMX 640; BHI agar; unit assumed
[13] = test system: PSEUDOMONAS AERUGINOSA BMH10; test: In vitro antibacterial activity, MIC, BHI agar dilution; details: P. aeruginosa BMH10, unit assumed
[14] = test system: PSEUDOMONAS AERUGINOSA 5007; test: as above; details: P. aeruginosa 5007, unit assumed
[15] = test system: PSEUDOMONAS AERUGINOSA K799/WT; test: as above; details: P. aeruginosa K799/WT, unit assumed
[16] = test system: PSEUDOMONAS AERUGINOSA K799/61; test: as above; details: P. aeruginosa K799/61, unit assumed
PSEUDOMONAS CEPACIA 296I = test: as above; details: P. cepacia 296I, unit assumed
[17] = test system: PSEUDOMONAS AERUGINOSA DPHD-5263; test: as above; details: P. aeruginosa DPHD-5263, unit assumed
[18] = test system: PSEUDOMONAS AERUGINOSA DPHD-2862; test: as above; details: P. aeruginosa DPHD-2862, unit assumed
CANDIDA ALBICANS CCH 442 = test: as above; details: C. albicans CCH 442, unit assumed
[19] = test system: ENTEROBACTER AEROGENES ATCC 13048; test: as above; details: E. aerogenes ATCC 13048, unit assumed
[20] = test system: MYCOBACTERIUM SMEGMATIS ATCC 114; test: as above; details: M. smegmatis ATCC 114, unit assumed
[21] = test system: STAPHYLOCOCCUS AUREUS ATCC 6538P; test: as above; details: S. aureus ATCC 6538P, 35-37° C., 20 to 24 hours, unit assumed
[22] = test system: STAPHYLOCOCCUS AUREUS NCTC10649M; test: as above; details: S. aureus NCTC10649M, unit assumed

| SMILES | MIC [1] [µg/mL] | MIC [2] [µg/mL] | MIC [3] [µg/mL] | MIC [4] [µg/mL] | MIC [5] [µg/mL] | MIC [6] [µg/mL] | MIC (EN[…] ATCC 8043) [µg/mL] | MIC (M[…] ATCC 4698) [µg/mL] | MIC (M[…] ATCC 9341) [µg/mL] | MIC [8] [µg/mL] | MIC [9] [µg/mL] | MIC [10] [µg/mL] | MIC (ESCHERICHIA COLI JUHL) [µg/mL] | MIC (ESCHERICHIA COLI SS) [µg/mL] | MIC (ESCHERICHIA COLI DC-2) [µg/mL] | MIC (ESCHERICHIA COLI H560) [µg/mL] | MIC (ESCHERICHIA COLI KNK 437) [µg/mL] | MIC [11] [µg/mL] | MIC [12] [µg/mL] | MIC [13] [µg/mL] | also measured |
| --- | --- | --- | --- | --- | --- | --- | --- | --- | --- | --- | --- | --- | --- | --- | --- | --- | --- | --- | --- | --- | --- |
| CC[C@H]1OC(=O)[C@H](C)C(=O)[C@H](C)[C@@H](O[C@@H]2O[C@H](C)C[C@H](N(C)C)[C@H]2O)[C@](C)(OC)C[C@@H](C)C2=NC3CN(Cc4ccccc4)CC3N3C(=O)O[C@@]1(C)[C@H]3[C@H]2C (stereo partly shown) [Example 110] | 0.2 (≈ 0.26 µM) | > 100 | 0.39 (≈ 0.507 µM) | 0.2 (≈ 0.26 µM) | > 100 | 0.2 (≈ 0.26 µM) | 0.05 (≈ 0.065 µM) | 0.78 (≈ 1.01 µM) | 0.05 (≈ 0.065 µM) | 0.005 (≈ 0.0065 µM) | 50 (≈ 65 µM) | 0.2 (≈ 0.26 µM) | 50 (≈ 65 µM) | 0.2 (≈ 0.26 µM) | 25 (≈ 32.5 µM) | 12.5 (≈ 16.3 µM) | 50 (≈ 65 µM) | > 100 | > 100 | 50 (≈ 65 µM) | MIC (STR[…] 508): 0.02 µg/mL (≈ 0.026 µM); MIC [7]: 0.02 µg/mL (≈ 0.026 µM); MIC [14]: > 100 µg/mL; MIC [15]: > 100 µg/mL; MIC [16]: 1.56 µg/mL (≈ 2.03 µM); MIC (PSEUDOMONAS CEPACIA 296I): 50 µg/mL (≈ 65 µM); MIC [17]: > 100 µg/mL; MIC [18]: > 100 µg/mL; MIC (CANDIDA ALBICANS CCH 442): > 100 µg/mL |
| CCOC(=O)CCN1CC2N=C3C(C)CC(C)(OC)C(OC4OC(C)CC(N(C)C)C4O)C(C)C(=O)C(C)C(=O)OC(CC)C4(C)OC(=O)N(C2C1)C4C3C (stereo not shown) [Example 130] | 0.78 (≈ 1 µM) | > 100 | 1.56 (≈ 2 µM) | 1.56 (≈ 2 µM) | > 100 | 3.1 (≈ 3.98 µM) | 0.2 (≈ 0.257 µM) | 0.78 (≈ 1 µM) | 0.2 (≈ 0.257 µM) | 0.1 (≈ 0.128 µM) | > 100 | 6.2 (≈ 7.96 µM) | > 100 | 0.78 (≈ 1 µM) | > 100 | > 100 | > 100 | > 100 | > 100 | > 100 | MIC (STR[…] 508): 0.1 µg/mL (≈ 0.128 µM); MIC [7]: 0.1 µg/mL (≈ 0.128 µM); MIC [19]: > 100 µg/mL; MIC [14]: > 100 µg/mL; MIC [15]: > 100 µg/mL; MIC [16]: 3.1 µg/mL (≈ 3.98 µM); MIC (PSEUDOMONAS CEPACIA 296I): > 100 µg/mL; MIC [17]: > 100 µg/mL; MIC [18]: > 100 µg/mL; MIC (CANDIDA ALBICANS CCH 442): > 100 µg/mL; MIC [20]: 25 µg/mL (≈ 32.1 µM) |
| CC[C@H]1OC(=O)[C@H](C)C(=O)[C@H](C)[C@@H](O[C@@H]2O[C@H](C)C[C@H](N(C)C)[C@H]2O)[C@](C)(OC)C[C@@H](C)C2=NCC(COC(=O)c3ccnc4ccccc34)N3C(=O)O[C@@]1(C)[C@H]3[C@H]2C (stereo partly shown) [Example 137] | 0.02 (≈ 0.0243 µM) | > 100 | 0.05 (≈ 0.0608 µM) | 0.05 (≈ 0.0608 µM) | > 100 | 0.05 (≈ 0.0608 µM) | 0.01 (≈ 0.0122 µM) | 0.2 (≈ 0.243 µM) | 0.01 (≈ 0.0122 µM) | 0.01 (≈ 0.0122 µM) | 6.2 (≈ 7.53 µM) | 0.2 (≈ 0.243 µM) | 25 (≈ 30.4 µM) | 0.02 (≈ 0.0243 µM) | 12.5 (≈ 15.2 µM) | 12.5 (≈ 15.2 µM) | 25 (≈ 30.4 µM) | 100 (≈ 122 µM) | 100 (≈ 122 µM) | 100 (≈ 122 µM) | MIC [21]: 0.02 µg/mL (≈ 0.0243 µM); MIC [22]: 0.05 µg/mL (≈ 0.0608 µM); MIC [19]: 100 µg/mL (≈ 122 µM); MIC [14]: 100 µg/mL (≈ 122 µM); MIC [15]: 50 µg/mL (≈ 60.8 µM); MIC [16]: 0.2 µg/mL (≈ 0.243 µM); MIC (PSEUDOMONAS CEPACIA 296I): 50 µg/mL (≈ 60.8 µM); MIC [17]: 100 µg/mL (≈ 122 µM); MIC [18]: 50 µg/mL (≈ 60.8 µM); MIC (CANDIDA ALBICANS CCH 442): > 100 µg/mL; MIC [20]: 0.2 µg/mL (≈ 0.243 µM) |
